pIC50: −log10 of the molar value.
Assays:
H2405 cells = test: H2405 cell proliferation assay (1), resazurin, 96-well; format: cell-based; settings: Homo sapiens, NCI-H2405, inhibition of cell proliferation
Description: H2405 Cell Proliferation Assay (1)
H2405 cells (catalog #CRL-5944) are obtained from the American Type Culture Collect (ATTC, Manassas, VA). Briefly, cells were grown in RPMI 1640 supplemented with 5% characterized fetal bovine serum (Invitrogen, Carlsbad, CA) and 1% Penicillin/Streptomycin/L-Glutamine at 37° C., 5% CO2, and 95% humidity. Cells are expanded until reaching 70-95% confluency at which point they are subcultured or harvested for assay use. A serial dilution of test compound is dispensed into a 96-well black clear bottom plate in triplicate. Three thousand cells are added per well in 200 μL complete growth medium in the 96-well plate. Plates are incubated for 67-72 hours at 37° C., 5% CO2, and 95% humidity. At the end of the incubation, 40 μL of a 440 μM solution of resazurin (Sigma, St. Louis, MO) in PBS is added to each well of the plate and plates are incubated for an additional 5-6 hours at 37° C., 5% CO2, and 95% humidity. Plates are read on a Synergy2 or equivalent reader (Biotek, Winooski VT) using an excitation of 540 nm and an emission of 600 nm. Data is analyzed using Prism software (GraphPad, San Diego, CA) to calculate IC50 values.

B-Raf (V600E) kinase = biological target: T1, B-Raf (V600E) kinase (Homo sapiens, UniProt P15056, V600E); test: Biochemical assay for B-Raf (V600E).1 (coupled pyruvate kinase/lactate dehydrogenase); settings: read-out: BRAF V600E.1 IC50
T1 construct: B-Raf (V600E) residues 416-766 with a; GST (N); purchased SignalChem
Procedure, shortened: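 0.03 nM B-Raf(V600E) phosphorylating 30.1 nM MEK at 1 mM ATP, pH 7.5, coupled to PK/LDH, with NADH oxidation followed at 340 nm for 6 h at 30 °C. Rates taken from the 3-4 h window. IC50 from a four-parameter fit of percent inhibition.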

A-Raf kinase = biological target: T2, A-Raf kinase (Homo sapiens, UniProt P10398, Y301D/Y302D); test: Biochemical assay for A-Raf.1 (coupled pyruvate kinase/lactate dehydrogenase); settings: read-out: ARAF.1 IC50
T2 construct: purchased Sigma
Procedure, shortened: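 A-Raf (5.55 nM) phosphorylating 30.1 nM MEK with 1 mM ATP was monitored by pyruvate kinase/lactate dehydrogenase-coupled NADH oxidation at 340 nm for 6 h at 30° C, in pH 7.5 Tris buffer with 15 mM MgCl2, 1% DMSO. Rates from 4–5 h gave percent inhibition; IC50 by four-parameter fit.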

B-Raf kinase = biological target: T3, B-Raf kinase (Homo sapiens, UniProt P15056); test: Biochemical assay for B-Raf.1 (coupled pyruvate kinase/lactate dehydrogenase); settings: read-out: BRAF.1 IC50
T3 construct: GST (N); purchased Sigma
Procedure, shortened: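 NADH oxidation followed at 340 nm in a pyruvate kinase/lactate dehydrogenase-coupled assay with 0.13 nM B-Raf, 30.1 nM MEK substrate, 1 mM ATP, pH 7.5 Tris buffer, 1% DMSO. Monitored 6 h at 30 °C; rate taken from 4–5 h. IC50 from four-parameter sigmoidal fit.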

T3 sequence (P15056 416-766): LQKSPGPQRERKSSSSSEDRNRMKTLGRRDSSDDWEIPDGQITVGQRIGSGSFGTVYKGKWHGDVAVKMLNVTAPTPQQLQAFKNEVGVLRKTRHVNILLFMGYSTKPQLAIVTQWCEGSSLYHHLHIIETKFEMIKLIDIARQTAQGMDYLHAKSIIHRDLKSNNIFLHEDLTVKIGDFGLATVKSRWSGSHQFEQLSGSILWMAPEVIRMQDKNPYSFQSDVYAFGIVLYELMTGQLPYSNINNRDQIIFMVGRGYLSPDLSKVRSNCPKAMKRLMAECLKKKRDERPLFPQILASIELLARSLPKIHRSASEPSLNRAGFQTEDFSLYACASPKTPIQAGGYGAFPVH
T2 sequence (P10398 with tags, fused parts or gaps Y301D/Y302D): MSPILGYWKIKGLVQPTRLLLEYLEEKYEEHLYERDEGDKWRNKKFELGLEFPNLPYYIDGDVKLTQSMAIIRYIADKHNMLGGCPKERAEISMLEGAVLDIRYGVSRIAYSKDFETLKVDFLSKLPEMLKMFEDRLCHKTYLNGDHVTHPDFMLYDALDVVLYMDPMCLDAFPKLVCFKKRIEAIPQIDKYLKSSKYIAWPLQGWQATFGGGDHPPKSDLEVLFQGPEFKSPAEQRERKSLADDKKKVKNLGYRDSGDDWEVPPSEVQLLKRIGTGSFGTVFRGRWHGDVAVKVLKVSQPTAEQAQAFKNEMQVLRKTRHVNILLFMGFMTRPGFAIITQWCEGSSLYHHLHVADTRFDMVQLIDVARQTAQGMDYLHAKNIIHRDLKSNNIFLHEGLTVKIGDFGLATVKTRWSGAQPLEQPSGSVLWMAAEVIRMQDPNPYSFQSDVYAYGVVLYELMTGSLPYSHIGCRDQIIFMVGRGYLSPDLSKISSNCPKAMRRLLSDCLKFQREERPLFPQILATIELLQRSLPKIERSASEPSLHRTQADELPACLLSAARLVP
T1 sequence (P15056 416-766 V600E): as the sequence (P15056 416-766) above, with V185E counted along it

Cc1cc(F)c(NC(=O)NCCC(C)(C)F)cc1-c1ccnc(-c2ccnc(NC(=O)C3CC3)c2)n1 [Example 128]
pIC50 (H2405 cells): 5.00 to 6.00
pIC50 (B-Raf (V600E) kinase): ≥ 7.00
pIC50 (A-Raf kinase): 6.30 to 7.00
pIC50 (B-Raf kinase): ≥ 7.00

COC(=O)Nc1cc(-c2cc(-c3cc(NC(=O)NC[C@H]4CCO4)c(F)cc3C)cc(OCCO)n2)ccn1 [Example 96]
pIC50 (H2405 cells): 5.00 to 6.00
pIC50 (B-Raf (V600E) kinase): ≥ 7.00
pIC50 (A-Raf kinase): < 6.00
pIC50 (B-Raf kinase): 6.00 to 6.30

COC(=O)Nc1cc(-c2nccc(-c3cc(NC(=O)NCCC4(OC)CC4)c(F)cc3C)n2)ccn1 [Example 146]
pIC50 (H2405 cells): 5.00 to 6.00
pIC50 (B-Raf (V600E) kinase): ≥ 7.00
pIC50 (A-Raf kinase): < 6.00
pIC50 (B-Raf kinase): ≥ 7.00

Cc1cc(F)c(NC(=O)NCC(C)C)cc1-c1cc(OCCO)nc(-c2ccnc(NC(=O)C3CC3)c2)c1 [Example 99]
pIC50 (H2405 cells): 6.30 to 7.00
pIC50 (B-Raf (V600E) kinase): ≥ 7.00
pIC50 (A-Raf kinase): 6.00 to 6.30
pIC50 (B-Raf kinase): ≥ 7.00

Reference: patent US20230357179A1, “RAF KINASE INHIBITORS AND METHODS OF USE THEREOF” (Deciphera Pharmaceuticals, LLC, priority 2021, published 2023)
